Experimental data reported in patent publication US20240197742A1, “Therapeutic Combinations of a CD19 Inhibitor and a BTK Inhibitor” (Acerta Pharma B.V., priority 2015, published 2024).

Tests used:
[1] = target: EGFR (Homo sapiens, UniProt P00533); test: EGF receptor phosphorylation in A431 cells (phosphoflow); conditions: 10 μM; A431 human epidermoid cancer cell line
[2] = tested on: CXCL12 and CCL2; test: Plasma chemokines in CLL patients; assay type: in vivo, human; conditions: plasma of treated CLL patients
[3] = tested on: GPVI; test: GPVI platelet aggregation (convulxin); assay type: cell-based, human
Protocol: GPVI platelet aggregation was measured for Formula (2) and Formula (10) (ibrutinib). Blood was obtained from untreated humans, and platelets were purified from […] by centrifugation. Cells were resuspended to a final concentration of 350,000/μL in buffer containing 145 mmol/L NaCl, 10 mmol/L HEPES, 0.5 mmol/L Na2HPO4, 5 mmol/L KCl, 2 mmol/L MgCl2, 1 mmol/L CaCl2, and 0.1% glucose, at pH 7.4. Stock solutions of Convulxin (CVX) GPVI were prepared on the day of experimentation and added to platelet suspensions 5 minutes (37° C., 1200 rpm) before the induction of aggregation. Aggregation was assessed with a Chronolog Lumi-Aggregometer (model 540 VS; Chronolog, Havertown, PA) and permitted to proceed for 6 minutes after the addition of agonist. The results are reported as maximum percent change in light transmittance from baseline with platelet buffer used as a reference.
In FIG. 72, the results of CVX-induced (250 ng/mL) human platelet aggregation results before and 15 minutes after administration of the BTK inhibitors to 6 healthy individuals are shown.

[4] = In vitro metabolism in hepatocytes; assay type: in vitro ADME, and human; conditions: ^4C-labeled Formula (2); mouse, rat, dog, rabbit, monkey, human hepatocytes
Text: (§1) No unique human metabolite was identified. Preliminary evaluations of metabolism in the plasma, bile, and urine of rats, dogs, and monkeys indicated metabolic processes of oxidation, glutathione binding, and hydrolysis.

[5] = tested on: B cell receptor; test: Whole blood potency: CD69 on CD19+ B cells after anti-human IgD; assay type: cell-based; conditions: blood from four healthy donors, 2 hours with compound, anti-human IgD 10 μg/mL 18 hours, read-out: EC50, CD69 on gated CD19+ B cells in whole blood
[6] = target: T1, BTK (Mus musculus, UniProt P35991); test: Molecular probe assay of irreversible BTK occupancy in MDSCs; assay type: in vivo; conditions: tumor bearing PDA mice, 15 mg/kg BID; Day 8 at 4 hours post dose (N=5)
T1 construct: MDSCs were purified from tumor bearing PDA mice; from tissue; host or cells: granulocytic and monocytic MDSCs from tumor-bearing PDA mice dosed in vivo

[7] = tested on: NSCLC (KrasLA2); test: KrasLA2 non-small cell lung cancer model; assay type: in vivo, mice; conditions: dosing of 15 mg/kg
Text: The model is designed to have sporadic expression in single cells of G12D mutant Kras off its own promoter triggered by spontaneous intrachromosomal recombination. Johnson, et al. Nature 2001, 410, 1111-16. While the mutant Kras protein is expressed in a few cells in all tissues, tumor development is seen only in the lung at high penetrance.

[8] = tested on: MDSC (monocytic) and NK cells; test: Flow cytometry of peripheral blood cell subsets in CLL patients; assay type: in vivo, human; conditions: patients with decreasing ALC %, doses including 100 mg BID, 200 mg QD, 400 mg QD
Protocol: PBMCs were stained with monoclonal antibodies conjugated to fluorescent tags (flourochromes) to identify cell subsets via flow cytometry. Non-viable cells were excluded from the analysis using the dye 7-aminoactinomycin D (7-AAD). To produce the metric of percent change, the following steps were taken. First, each cell subset was defined by hierarchical flow cytometry gating. Then, the change in frequency (between day 1 and day 28) was calculated for each cell subset. MDSC subsets were measured as a % of all myeloid cells. T cell subsets were measured as a % of all CD3^+ cells, and NK cells were measured as a % of all live CD45^+ cells. […] A cycle is 28 days. […] This may include patients who had quickly resolving lymphocytosis and those with no initial lymphocytosis. […] This may include patients who had quickly resolving lymphocytosis and those having no initial lymphocytosis. The effects in FIG. 52 to FIG. 55 are observed in multiple cohorts, at doses including 100 mg BID, 200 mg QD, and 400 mg QD. In FIG. 56 and FIG. 57, the effects on NK cells and MDSC cells are compared to a number of other markers versus % change in ALC at C1D28 and C2D28. These other markers include CD4+ T cells, CD8+ T cells, CD4+/CD8+ T cell ratio, NK-T cells, PD-1+CD4+ T cells, and PD-1+CD8+ T cells. The effects on NK cells and MDSC cells are observed to be much more pronounced than on any of these other markers.

[9] = tested on: 80 known pharmacologic targets such as G-protein-coupled receptors, nuclear receptors, proteases, and ion channels; test: Binding assays with 80 known pharmacologic targets; conditions: screened at 10 μM
[10] = tested on: BCR activation markers CD69 and CD86; test: In vivo potency: expression of BCR activation markers after IgM stimulation; conditions: mice gavaged, 3 hours post-dose, BCR stimulated with IgM; versus Formula (10)
Protocol: Mice were gavaged at increasing drug concentration and sacrificed at one time point (3 hours post-dose). BCR is stimulated with IgM and the expression of activation markers CD69 and CD86 are monitored by flow cytometry to determine EC50 values.
CD86 and CD69 are cell surface proteins that are BCR activation markers. […] BCR was stimulated with IgM and the expression of activation marker CD69 and CD86 are monitored by flow cytometry to determine EC50 values.

[11] = tested on: CYP enzymes; test: Nonclinical CYP interaction studies; assay type: in vitro ADME
Text: as §1

[12] = tested on: CD8+ T cells; test: Cytotoxic T cell (CTL) assay; assay type: cell-based; conditions: 500 nM, relative to vehicle
Protocol: Without being bound by any theory, CD8^+ T cells have two primary effector functions: (1) produce large amounts of IFN-γ (which activates macrophages), and (2) cytolytic activity. […] The targets were B lymphoblasts from lipopolysaccharide (LPS) treated cultures. The assay was performed by incubating different ratios of effectors:targets for 4 hours.

T1 sequence (P35991 whole entry): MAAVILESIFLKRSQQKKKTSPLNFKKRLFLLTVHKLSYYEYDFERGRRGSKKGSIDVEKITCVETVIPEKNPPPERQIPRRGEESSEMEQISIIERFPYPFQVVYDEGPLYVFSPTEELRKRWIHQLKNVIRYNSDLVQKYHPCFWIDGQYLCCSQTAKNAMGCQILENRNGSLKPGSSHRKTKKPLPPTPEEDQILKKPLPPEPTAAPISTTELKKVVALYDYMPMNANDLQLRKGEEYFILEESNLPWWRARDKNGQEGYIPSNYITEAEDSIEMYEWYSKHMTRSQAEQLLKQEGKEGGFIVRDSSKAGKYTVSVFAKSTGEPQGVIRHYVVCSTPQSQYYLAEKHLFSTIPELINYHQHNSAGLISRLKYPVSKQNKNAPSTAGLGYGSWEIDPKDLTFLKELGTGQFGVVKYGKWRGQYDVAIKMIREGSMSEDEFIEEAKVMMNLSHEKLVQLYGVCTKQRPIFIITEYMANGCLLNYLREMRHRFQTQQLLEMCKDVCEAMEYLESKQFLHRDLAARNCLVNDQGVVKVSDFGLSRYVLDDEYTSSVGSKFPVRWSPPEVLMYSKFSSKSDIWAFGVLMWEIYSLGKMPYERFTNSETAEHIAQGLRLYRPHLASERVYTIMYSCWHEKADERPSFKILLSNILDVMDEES
Sequence of EGFR (P00533 25-1210): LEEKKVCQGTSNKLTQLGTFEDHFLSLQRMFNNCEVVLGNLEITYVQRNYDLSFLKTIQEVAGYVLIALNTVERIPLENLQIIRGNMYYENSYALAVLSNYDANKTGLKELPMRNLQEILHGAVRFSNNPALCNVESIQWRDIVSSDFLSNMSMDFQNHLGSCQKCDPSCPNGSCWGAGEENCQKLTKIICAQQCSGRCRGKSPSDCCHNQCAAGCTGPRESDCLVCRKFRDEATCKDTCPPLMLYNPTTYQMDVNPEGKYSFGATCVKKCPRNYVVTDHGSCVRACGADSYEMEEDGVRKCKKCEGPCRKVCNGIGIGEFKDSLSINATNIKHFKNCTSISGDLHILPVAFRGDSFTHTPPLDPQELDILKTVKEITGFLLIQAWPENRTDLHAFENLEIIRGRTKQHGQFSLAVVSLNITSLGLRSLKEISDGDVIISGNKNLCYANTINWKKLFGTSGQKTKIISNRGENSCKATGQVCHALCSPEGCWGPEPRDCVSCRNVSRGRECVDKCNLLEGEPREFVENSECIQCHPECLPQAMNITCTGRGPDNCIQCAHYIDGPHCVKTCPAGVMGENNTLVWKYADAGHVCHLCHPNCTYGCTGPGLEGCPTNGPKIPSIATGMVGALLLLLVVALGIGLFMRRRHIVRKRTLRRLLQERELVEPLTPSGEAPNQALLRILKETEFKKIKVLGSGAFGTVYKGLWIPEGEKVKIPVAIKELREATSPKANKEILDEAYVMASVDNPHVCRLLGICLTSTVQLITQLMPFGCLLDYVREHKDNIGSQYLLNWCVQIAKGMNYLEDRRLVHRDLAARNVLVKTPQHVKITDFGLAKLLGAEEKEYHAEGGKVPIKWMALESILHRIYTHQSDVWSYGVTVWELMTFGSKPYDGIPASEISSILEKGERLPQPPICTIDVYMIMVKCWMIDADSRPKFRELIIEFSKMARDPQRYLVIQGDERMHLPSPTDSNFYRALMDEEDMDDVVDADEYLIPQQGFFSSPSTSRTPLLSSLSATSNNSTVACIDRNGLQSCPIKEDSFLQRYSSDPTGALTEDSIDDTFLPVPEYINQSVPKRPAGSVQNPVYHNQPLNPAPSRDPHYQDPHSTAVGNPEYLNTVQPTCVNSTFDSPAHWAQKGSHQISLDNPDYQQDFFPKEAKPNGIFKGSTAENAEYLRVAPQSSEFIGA

## CC#CC(=O)N1CCC[C@H]1c1nc(-c2ccc(C(=O)Nc3ccccn3)cc2)c2c(N)nccn12 [Formula (2), (S)-4-(8-amino-3-(1-(but-2-ynoyl)pyrrolidin-2-yl)imidazo[1,5-α]pyrazin-1-yl)-N-(pyridin-2-yl)benzamide]
[1]
  inhibition of in vitro EGFR phosphorylation: no inhibition
[2]
  CCL2 levels: significant decrease
  CXCL12 levels: significant decrease
[3]; CVX-induced human platelet aggregation
  effect on GPVI platelet aggregation: does not
[3]; purified human platelets, convulxin (CVX)
  IC50: 1150 nM
[4]
  metabolites in hepatocytes: two mono-oxidized metabolites and a glutathione conjugate
[5]
  EC50: 8.2 nM
[6]
  BTK occupancy in granulocytic and monocytic MDSC compartments: Complete
[7]
  immunosuppressive tumor associated MDSCs: significant reduction
  immunosuppressive tumor associated TAMs: significant reduction
  immunosuppressive tumor associated Tregs: significant reduction
  number of tumors: fewer overall tumors
  tumor volumes versus vehicle (microCT): significant decrease
[8]; C1D28 and C2D28
  % change in MDSC (monocytic) level over 28 days versus % ALC change: increasing MDSC (monocytic) %
[8]; C1D28 or C2D28
  % change in NK cell level over 28 days versus % ALC change: increasing NK cell %
[9]
  activity in binding assays: significant activity only against the A3 adenosine receptor
[10]
  in vivo potency at inhibiting expression of activation markers CD69 and CD86: more potent
[11]
  drug-drug interaction potential through CYP enzymes: very unlikely to cause clinical drug-drug interactions
[12]; 4 days CTL generation
  CD8+ T cell function as measured by % cytotoxicity: no effect
[12]
  CD8+ T cell function as measured by IFN-γ level: no effect
